Measurements as given in ChEMBL document CHEMBL3046389, “Synthesis and biological evaluation of novel hydroquinone dimethyl ethers as potential anticancer and antimicrobial agents” (2013).
In brackets after ≈: the same amount, converted by molar mass.

Experiments:
Type in all cases: functional
Pseudomonas aeruginosa [1] = assay: Antimicrobial activity against Pseudomonas aeruginosa ATCC 10145 after 48 hr by two-fold serial broth dilution method; details: ATCC 10145, 48 h
Staphylococcus aureus [2] = assay: Antimicrobial activity against Staphylococcus aureus DSM 1104 after 48 hr by two-fold serial broth dilution method relative to ampicillin
Staphylococcus aureus [3] = assay: Antimicrobial activity against Staphylococcus aureus DSM 1104 after 48 hr by two-fold serial broth dilution method; details: DSM 1104, 48 h
Bacillus subtilis = assay: Antimicrobial activity against Bacillus subtilis ATCC 6633 after 48 hr by two-fold serial broth dilution method; details: ATCC 6633, 48 h
Escherichia coli = assay: Antimicrobial activity against Escherichia coli ATCC 11775 after 48 hr by two-fold serial broth dilution method; details: ATCC 11775, 48 h
Candida albicans = assay: Antimicrobial activity against Candida albicans DSM 70014 after 48 hr by two-fold serial broth dilution method; details: DSM 70014, 48 h
UO-31 = assay: Growth inhibition of Homo sapiens (human) UO31 cells at 10 uM after 48 hr by SRB assay; details: UO-31, 48 h, read-out: GI
Pseudomonas aeruginosa [4] = assay: Ratio of ampicillin MIC to compound MIC for Pseudomonas aeruginosa ATCC 10145 after 48 hr by two-fold serial broth dilution method
T47D = assay: Growth inhibition of Homo sapiens (human) T47D cells at 10 uM after 48 hr by SRB assay; details: read-out: GI
KM12 = assay: Growth inhibition of Homo sapiens (human) KM12 cells at 10 uM after 48 hr by SRB assay; details: KM12, 48 h, read-out: GI
CAKI-1 = assay: Growth inhibition of Homo sapiens (human) CAKI-1 cells at 10 uM after 48 hr by SRB assay; details: CAKI-1, 48 h, read-out: GI
IGROV-1 = assay: Growth inhibition of Homo sapiens (human) IGROV1 cells at 10 uM after 48 hr by SRB assay; details: IGROV-1, 48 h, read-out: GI
PC-3 = assay: Growth inhibition of Homo sapiens (human) PC3 cells at 10 uM after 48 hr by SRB assay; details: PC-3, 48 h, read-out: GI
SK-MEL-5 = assay: Growth inhibition of Homo sapiens (human) SK-MEL-5 cells at 10 uM after 48 hr by SRB assay; details: SK-MEL-5, 48 h, read-out: GI
EKVX = assay: Growth inhibition of Homo sapiens (human) EKVX cells at 10 uM after 48 hr by SRB assay; details: read-out: GI
MDA-MB-468 = assay: Growth inhibition of Homo sapiens (human) MDA-MB-468 cells at 10 uM after 48 hr by SRB assay; details: MDA-MB-468, 48 h, read-out: GI
RXF 393 = assay: Growth inhibition of Homo sapiens (human) RXF393 cells at 10 uM after 48 hr by SRB assay; details: RXF 393, 48 h, read-out: GI
MCF7 = assay: Growth inhibition of Homo sapiens (human) MCF7 cells at 10 uM after 48 hr by SRB assay; details: MCF7, 48 h, read-out: GI
ACHN = assay: Growth inhibition of Homo sapiens (human) ACHN cells at 10 uM after 48 hr by SRB assay; details: read-out: GI
UACC-62 = assay: Growth inhibition of Homo sapiens (human) UACC62 cells at 10 uM after 48 hr by SRB assay; details: UACC-62, 48 h, read-out: GI
Malme-3M = assay: Growth inhibition of Homo sapiens (human) MALME-3M cells at 10 uM after 48 hr by SRB assay; details: read-out: GI
MDA-MB-435 = assay: Growth inhibition of Homo sapiens (human) MDA-MB-435 cells at 10 uM after 48 hr by SRB assay; details: MDA-MB-435, 48 h, read-out: GI
SR = assay: Growth inhibition of Homo sapiens (human) SR cells at 10 uM after 48 hr by SRB assay; details: read-out: GI
HCT-15 = assay: Growth inhibition of Homo sapiens (human) HCT15 cells at 10 uM after 48 hr by SRB assay; details: HCT-15, 48 h, read-out: GI
M14 = assay: Growth inhibition of Homo sapiens (human) M14 cells at 10 uM after 48 hr by SRB assay; details: M14, 48 h, read-out: GI
HL-60(TB) = assay: Growth inhibition of Homo sapiens (human) HL-60(TB) cells at 10 uM after 48 hr by SRB assay; details: HL-60, 48 h, read-out: GI
SF-295 = assay: Growth inhibition of Homo sapiens (human) SF295 cells at 10 uM after 48 hr by SRB assay; details: SF-295, 48 h, read-out: GI
A549 = assay: Growth inhibition of Homo sapiens (human) A549/ATCC cells at 10 uM after 48 hr by SRB assay; details: A549, 48 h, read-out: GI
K562 = assay: Growth inhibition of Homo sapiens (human) K562 cells at 10 uM after 48 hr by SRB assay; details: K562, 48 h, read-out: GI
NCI-H23 = assay: Growth inhibition of Homo sapiens (human) NCI-H23 cells at 10 uM after 48 hr by SRB assay; details: NCI-H23, 48 h, read-out: GI
HCT-116 = assay: Growth inhibition of Homo sapiens (human) HCT116 cells at 10 uM after 48 hr by SRB assay; details: HCT-116, 48 h, read-out: GI

## COc1ccc(OC)c(/C=C/c2nnc(S)n2-c2ccc(C)cc2)c1
Pseudomonas aeruginosa [1]
  MBC: 50 µg/mL (≈ 141 µM)
  MIC: 50 µg/mL (≈ 141 µM)
Staphylococcus aureus [2]
  Activity: 40%
Staphylococcus aureus [3]
  MBC: 25 µg/mL (≈ 70.7 µM)
  MIC: 12.5 µg/mL (≈ 35.4 µM)
Bacillus subtilis
  MBC: 25 µg/mL (≈ 70.7 µM)
  MIC: 12.5 µg/mL (≈ 35.4 µM)
Escherichia coli
  MBC: 50 µg/mL (≈ 141 µM)
  MIC: 25 µg/mL (≈ 70.7 µM)
Candida albicans
  MFC: 50 µg/mL (≈ 141 µM)
  MIC: 25 µg/mL (≈ 70.7 µM)

## COc1ccc(OC)c(/C=C/c2nnc(SC)n2-c2ccccc2)c1
Pseudomonas aeruginosa [1]
  MBC: 50 µg/mL (≈ 141 µM)
  MIC: 25 µg/mL (≈ 70.7 µM)
Staphylococcus aureus [3]
  MBC: 50 µg/mL (≈ 141 µM)
  MIC: 50 µg/mL (≈ 141 µM)
UO-31
  inhibition of growth at 10 µM: 44.5%
Pseudomonas aeruginosa [4]
  Ratio: 2
Bacillus subtilis
  MBC: 50 µg/mL (≈ 141 µM)
  MIC: 50 µg/mL (≈ 141 µM)
Escherichia coli
  MBC: 50 µg/mL (≈ 141 µM)
  MIC: 50 µg/mL (≈ 141 µM)
T47D
  inhibition of growth at 10 µM: 41.8%
Candida albicans
  MFC: 50 µg/mL (≈ 141 µM)
  MIC: 50 µg/mL (≈ 141 µM)

## CCSc1nnc(/C=C/c2cc(OC)ccc2OC)n1-c1ccccc1
Pseudomonas aeruginosa [1]
  MBC: 100 µg/mL (≈ 272 µM)
  MIC: 100 µg/mL (≈ 272 µM)
Staphylococcus aureus [3]
  MBC: 100 µg/mL (≈ 272 µM)
  MIC: 100 µg/mL (≈ 272 µM)
Bacillus subtilis
  MBC: 100 µg/mL (≈ 272 µM)
  MIC: 100 µg/mL (≈ 272 µM)
Escherichia coli
  MBC: 100 µg/mL (≈ 272 µM)
  MIC: 100 µg/mL (≈ 272 µM)
Candida albicans
  MFC: 50 µg/mL (≈ 136 µM)
  MIC: 50 µg/mL (≈ 136 µM)

## COc1ccc(OC)c(/C=C/c2nnc(SC)n2-c2ccc(Cl)cc2)c1
KM12
  inhibition of growth at 10 µM: 46.9%
CAKI-1
  inhibition of growth at 10 µM: 35.5%
IGROV-1
  inhibition of growth at 10 µM: 38.2%
PC-3
  inhibition of growth at 10 µM: 61.1%
SK-MEL-5
  inhibition of growth at 10 µM: 46.6%
EKVX
  inhibition of growth at 10 µM: 38.6%
MDA-MB-468
  inhibition of growth at 10 µM: 74.8%
RXF 393
  inhibition of growth at 10 µM: 40.3%
MCF7
  inhibition of growth at 10 µM: 53.3%
ACHN
  inhibition of growth at 10 µM: 32.1%
Pseudomonas aeruginosa [1]
  MBC: 50 µg/mL (≈ 129 µM)
  MIC: 50 µg/mL (≈ 129 µM)
UACC-62
  inhibition of growth at 10 µM: 50.5%
Staphylococcus aureus [3]
  MBC: 100 µg/mL (≈ 258 µM)
  MIC: 100 µg/mL (≈ 258 µM)
Malme-3M
  inhibition of growth at 10 µM: 55.2%
UO-31
  inhibition of growth at 10 µM: 60.4%
MDA-MB-435
  inhibition of growth at 10 µM: 91.3%
SR
  inhibition of growth at 10 µM: 58.5%
HCT-15
  inhibition of growth at 10 µM: 41.1%
M14
  inhibition of growth at 10 µM: 40%
HL-60(TB)
  inhibition of growth at 10 µM: 34.3%
Bacillus subtilis
  MBC: 100 µg/mL (≈ 258 µM)
  MIC: 100 µg/mL (≈ 258 µM)
Escherichia coli
  MBC: 100 µg/mL (≈ 258 µM)
  MIC: 100 µg/mL (≈ 258 µM)
T47D
  inhibition of growth at 10 µM: 57.2%
Candida albicans
  MFC: 100 µg/mL (≈ 258 µM)
  MIC: 50 µg/mL (≈ 129 µM)
SF-295
  inhibition of growth at 10 µM: 53.2%
A549
  inhibition of growth at 10 µM: 35.2%
K562
  inhibition of growth at 10 µM: 69.3%
NCI-H23
  inhibition of growth at 10 µM: 40.3%
HCT-116
  inhibition of growth at 10 µM: 40.2%

## CCSc1nnc(/C=C/c2cc(OC)ccc2OC)n1-c1ccc(Cl)cc1
Pseudomonas aeruginosa [1]
  MBC: 50 µg/mL (≈ 124 µM)
  MIC: 50 µg/mL (≈ 124 µM)
Staphylococcus aureus [3]
  MBC: 100 µg/mL (≈ 249 µM)
  MIC: 100 µg/mL (≈ 249 µM)
Bacillus subtilis
  MBC: 100 µg/mL (≈ 249 µM)
  MIC: 50 µg/mL (≈ 124 µM)
Escherichia coli
  MBC: 50 µg/mL (≈ 124 µM)
  MIC: 50 µg/mL (≈ 124 µM)
Candida albicans
  MFC: 50 µg/mL (≈ 124 µM)
  MIC: 50 µg/mL (≈ 124 µM)
